Test systems include DU-145; SR; CAKI-1; K562; SK-MEL-2; A549; OVCAR-8; Hs-578T; RXF 393; RPMI-8226; MDA-MB-231; SF-539; OVCAR-4; EKVX; OVCAR-3; PC-3; HT-29; HOP-62; NCI-H522; HCC 2998.
What all share (assay): growth of human tumour cells (NCI), 48 h

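Test compounds were applied to cells in 96-well plates for 48 hours at 5 doses. Here, GI50 denotes the concentration required for 50% inhibition of growth.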 Activity calls are given as the source filed them. No stated cut-off is given here; in the data, active = GI50 up to about 1.1 µM and inactive = higher.

Results on eight compounds are retold here after ChEMBL document CHEMBL1201862, “PubChem BioAssay data set” (2004).

As for `Oc1ccc(-c2nc3ccccc3s2)cc1`, the GI50 in the assay on DU-145 is 33.1 µM (inactive); in the assay on SR, 32.7 µM (inactive); in the assay with CAKI-1, 29.2 µM (inactive); with K562, 29 µM (inactive); in the assay on SK-MEL-2, 20.4 µM (inactive); in the assay on A549, 41.3 µM (inactive). In addition, the GI50 in the assay with OVCAR-8 was 30.6 µM (inactive); with Hs-578T it was 37.7 µM (inactive); in the assay with RXF 393, 24 µM (inactive); in the assay on RPMI-8226, 27.1 µM (inactive); with MDA-MB-231, 29.2 µM (inactive); in the assay with SF-539 it was 47.8 µM (inactive). The GI50 is 48.1 µM (inactive) in the assay with OVCAR-4; 21.5 µM (inactive) in the assay with EKVX; 34.5 µM (inactive) with OVCAR-3; 32.1 µM (inactive) in the assay with PC-3; 42.3 µM (inactive) with HT-29; 37 µM (inactive) in the assay with HOP-62. The GI50 in the assay with NCI-H522 is 15.5 µM (inactive).

Take `CC1(CF)SCc2nc3ccccc3n21` (stereo not given): the GI50 in the assay with HCC 2998, with DU-145, in the assay with SR, with CAKI-1, with A549 and in the assay with OVCAR-8 was > 100 µM (inactive) in each case. Besides, the GI50 in the assay on Hs-578T, in the assay on RXF 393, with RPMI-8226, in the assay on MDA-MB-231, in the assay on SF-539 and in the assay with EKVX was > 100 µM (inactive) throughout. Besides, the GI50 in the assay with OVCAR-3, in the assay on PC-3, in the assay on HT-29, with HOP-62 and in the assay on NCI-H522 was > 100 µM (inactive) each time.

As for `OC[C@]1(n2nc3ccccc3n2)OC[C@@H]1c1ccccc1`, the GI50 is > 100 µM (inactive) with HCC 2998; 27.5 µM (inactive) in the assay on DU-145; 32.2 µM (inactive) in the assay with SR; 27.2 µM (inactive) in the assay with CAKI-1; 56.9 µM (inactive) in the assay on K562; 34 µM (inactive) in the assay on SK-MEL-2. Further, the GI50 was 64.3 µM (inactive) with A549; 51.5 µM (inactive) in the assay with OVCAR-8; 56 µM (inactive) in the assay on Hs-578T; 26.9 µM (inactive) in the assay with RPMI-8226; 74.3 µM (inactive) in the assay on MDA-MB-231; 25.2 µM (inactive) in the assay with SF-539. The GI50 in the assay with OVCAR-4 is 16.9 µM (inactive); in the assay with EKVX, > 100 µM (inactive); with OVCAR-3, 21.7 µM (inactive); in the assay with PC-3, 70 µM (inactive); with HT-29 it was 29.6 µM (inactive); in the assay on HOP-62 it was 39.3 µM (inactive). Also, the GI50 with NCI-H522 is 20.1 µM (inactive).

On to `CCCCCCCc1c(Cl)nc(Cl)nc1Cl`, for which the GI50 with HCC 2998 is 5.81 µM (inactive); in the assay on DU-145, 14.3 µM (inactive); in the assay on SR, 0.604 µM (active); in the assay on CAKI-1, 2.38 µM (inactive); in the assay on K562, 2.06 µM (inactive); in the assay with A549, 16.9 µM (inactive). In addition, the GI50 is 2.36 µM (inactive) with OVCAR-8; 6.28 µM (inactive) in the assay with Hs-578T; 2.47 µM (inactive) in the assay on RXF 393; 2.84 µM (inactive) in the assay with RPMI-8226; 3.52 µM (inactive) in the assay with MDA-MB-231; 9.82 µM (inactive) in the assay with SF-539. Moreover, the GI50 with OVCAR-4 is 2.87 µM (inactive); in the assay on EKVX, 8.77 µM (inactive); in the assay with OVCAR-3 it was 6.35 µM (inactive); in the assay with PC-3, 8.28 µM (inactive); with HT-29, 4.04 µM (inactive); with HOP-62 it was 18.6 µM (inactive). The GI50 in the assay on NCI-H522 was 1.74 µM (inactive).

On to `Cc1c2c(n(CC(c3ccccc3)c3ccccc3)c1C)NN=C(C#N)S2(=O)=O`, for which the GI50 was > 100 µM (inactive) with HCC 2998; > 100 µM (inactive) with DU-145; 35.2 µM (inactive) with SR; > 100 µM (inactive) with CAKI-1; > 100 µM (inactive) with SK-MEL-2; > 100 µM (inactive) with A549. Further, the GI50 is > 100 µM (inactive) in the assay with OVCAR-8; 43.1 µM (inactive) in the assay with Hs-578T; > 100 µM (inactive) in the assay on RPMI-8226; 33.9 µM (inactive) in the assay with MDA-MB-231; > 100 µM (inactive) in the assay on SF-539; > 100 µM (inactive) in the assay on OVCAR-4. The GI50 in the assay with EKVX is > 100 µM (inactive); in the assay with OVCAR-3 it was > 100 µM (inactive); with PC-3 it was > 100 µM (inactive); in the assay on HT-29 it was > 100 µM (inactive); with HOP-62, > 100 µM (inactive); in the assay with NCI-H522, 45.6 µM (inactive).

Regarding `Cc1ccc2c(c1)CC1(Cc3cccc(C)c3C1=O)C2=O` (stereo not given), the GI50 with HCC 2998 is > 100 µM (inactive); in the assay with DU-145, > 100 µM (inactive); in the assay with SR, 79.8 µM (inactive); in the assay with K562 it was 39.4 µM (inactive); in the assay with A549, > 100 µM (inactive); in the assay on OVCAR-8 it was > 100 µM (inactive). Besides, the GI50 was 96.8 µM (inactive) in the assay on Hs-578T; > 100 µM (inactive) in the assay on RXF 393; > 100 µM (inactive) with RPMI-8226; 19.4 µM (inactive) in the assay on MDA-MB-231; > 100 µM (inactive) in the assay on SF-539; 55.8 µM (inactive) in the assay with OVCAR-4. The GI50 in the assay with EKVX was > 100 µM (inactive); in the assay with OVCAR-3 it was > 100 µM (inactive); with PC-3, > 100 µM (inactive); in the assay on HT-29, 51.3 µM (inactive); with HOP-62, > 100 µM (inactive); in the assay with NCI-H522, 82.6 µM (inactive).

In the case of `CCNC(=O)Nc1ccccn1`, the GI50 in the assay on HCC 2998, in the assay on DU-145, in the assay on SR, in the assay with CAKI-1, in the assay on K562 and in the assay with A549 was > 100 µM (inactive) each time. Further, the GI50 in the assay with OVCAR-8, in the assay on Hs-578T, in the assay with RXF 393, in the assay on MDA-MB-231, with SF-539 and with OVCAR-4 was > 100 µM (inactive) throughout. Also, the GI50 in the assay on EKVX, with OVCAR-3, in the assay on PC-3, in the assay with HT-29, in the assay on HOP-62 and in the assay with NCI-H522 was > 100 µM (inactive) throughout.

Turning to `O=C1c2cccc3cccc(c23)C2NCCCN12` (stereo not given), the GI50 with HCC 2998 was 62.5 µM (inactive); with DU-145, > 100 µM (inactive); in the assay with SR, 71 µM (inactive); with CAKI-1, 89.3 µM (inactive); with K562 it was 70.3 µM (inactive); in the assay on A549, > 100 µM (inactive). Further, the GI50 in the assay on OVCAR-8 is > 100 µM (inactive); in the assay with Hs-578T, > 100 µM (inactive); in the assay with RXF 393, 42.4 µM (inactive); with MDA-MB-231 it was > 100 µM (inactive); with OVCAR-4 it was > 100 µM (inactive); in the assay on EKVX, 35.7 µM (inactive). Further, the GI50 with OVCAR-3 is > 100 µM (inactive); in the assay on PC-3, > 100 µM (inactive); in the assay with HT-29, > 100 µM (inactive); in the assay on HOP-62 it was > 100 µM (inactive); in the assay on NCI-H522, 28.8 µM (inactive).
